Converted amounts (≈) assume the structure as drawn.
Experiments:
Enterococcus faecalis = assay: Minimum Inhibitory Concentration against Enterococcus faecalis SR-7914 (VRE) was determined; assay type: functional
Enterococcus faecium = assay: Minimum Inhibitory Concentration against Enterococcus faecium SR-7917 (VRE) was determined; assay type: functional
Staphylococcus aureus = assay: Minimum Inhibitory Concentration against Staphylococcus aureus SR-3637 (MRSA) was determined; assay type: functional
[1] = Solubility in water was determined; assay type: physicochemical

Row | SMILES | MIC (Enterococcus faecalis) [µg/mL] | MIC (Enterococcus faecium) [µg/mL] | MIC (Staphylococcus aureus) [µg/mL] | Solubility [1] [%]
1 | CN[C@H](CC(C)C)C(=O)N[C@H]1C(=O)N[C@@H](CC(N)=O)C(=O)N[C@H]2C(=O)NC3C(=O)NC(C(=O)N[C@@H](C(=O)O)c4cc(O)cc(O)c4-c4cc3ccc4O)[C@H](O[C@H]3C[C@](C)(N)[C@@H](O)[C@H](C)O3)c3ccc(c(Cl)c3)Oc3cc2cc(c3O[C@@H]2O[C@H](CO)[C@@H](O)[C@H](O)[C@H]2O)Oc2ccc(cc2Cl)[C@H]1O (some centres not stated) | > 100 | > 100 | 0.78 (≈ 0.538 µM) | > 10
2 | CCCCCCCOc1ccc(CN[C@@]2(C)C[C@H](O[C@@H]3c4ccc(c(Cl)c4)Oc4cc5cc(c4O[C@@H]4O[C@H](CO)[C@@H](O)[C@H](O)[C@H]4O)Oc4ccc(cc4Cl)[C@@H](O)[C@@H](NC(=O)[C@@H](CC(C)C)NC)C(=O)N[C@@H](CC(N)=O)C(=O)N[C@H]5C(=O)NC4C(=O)NC3C(=O)N[C@@H](C(=O)O)c3cc(O)cc(O)c3-c3cc4ccc3O)O[C@@H](C)[C@@H]2O)cc1 (some centres not stated) | 25 (≈ 15.1 µM) | 12.5 (≈ 7.56 µM) | 0.39 (≈ 0.236 µM) | –
3 | CN[C@H](CC(C)C)C(=O)N[C@H]1C(=O)N[C@@H](CC(N)=O)C(=O)N[C@H]2C(=O)NC3C(=O)NC(C(=O)N[C@@H](C(=O)O)c4cc(O)cc(O)c4-c4cc3ccc4O)[C@H](O[C@H]3C[C@](C)(NCc4ccc(-c5ccc(-c6ccccc6)cc5)cc4)[C@@H](O)[C@H](C)O3)c3ccc(c(Cl)c3)Oc3cc2cc(c3O[C@@H]2O[C@H](CO)[C@@H](O)[C@H](O)[C@H]2O)Oc2ccc(cc2Cl)[C@H]1O (some centres not stated) | 12.5 (≈ 7.39 µM) | 3.13 (≈ 1.85 µM) | 0.39 (≈ 0.231 µM) | –
4 | CN[C@H](CC(C)C)C(=O)N[C@H]1C(=O)N[C@@H](CC(N)=O)C(=O)N[C@H]2C(=O)NC3C(=O)NC(C(=O)N[C@@H](C(=O)O)c4cc(O)cc(O)c4-c4cc3ccc4O)[C@H](O[C@H]3C[C@](C)(NCc4ccc(-c5ccc(Cl)cc5)cc4)[C@@H](O)[C@H](C)O3)c3ccc(c(Cl)c3)Oc3cc2cc(c3O[C@@H]2O[C@H](CO)[C@@H](O)[C@H](O)[C@H]2O)Oc2ccc(cc2Cl)[C@H]1O (some centres not stated) | 12.5 (≈ 7.58 µM) | 6.25 (≈ 3.79 µM) | 0.1 (≈ 0.0606 µM) | –
5 | CN[C@H](CC(C)C)C(=O)N[C@H]1C(=O)N[C@@H](CC(N)=O)C(=O)N[C@H]2C(=O)N[C@H]3C(=O)N[C@H](C(=O)N[C@H](C(=O)O)c4cc(O)cc(O)c4-c4cc3ccc4O)[C@H](O)c3ccc(c(Cl)c3)Oc3cc2cc(c3O[C@@H]2O[C@H](CO)[C@@H](O)[C@H](O)[C@H]2O[C@H]2C[C@](C)(N)[C@H](O)[C@H](C)O2)Oc2ccc(cc2Cl)[C@H]1O [VANCOMYCIN] | > 100 | > 100 | 1.56 (≈ 1.08 µM) | > 10

More lines, in order of falling MIC (Enterococcus faecalis), values ahead:

Row | MIC (Enterococcus faecalis) [µg/mL] | MIC (Enterococcus faecium) [µg/mL] | MIC (Staphylococcus aureus) [µg/mL] | SMILES | Solubility [1] [%]
6 | 12.5 (≈ 7.66 µM) | 6.25 (≈ 3.83 µM) | 0.2 (≈ 0.123 µM) | CCCCCCCCCCCCCN[C@@]1(C)C[C@H](O[C@@H]2c3ccc(c(Cl)c3)Oc3cc4cc(c3O[C@@H]3O[C@H](CO)[C@@H](O)[C@H](O)[C@H]3O)Oc3ccc(cc3Cl)[C@@H](O)[C@@H](NC(=O)[C@@H](CC(C)C)NC)C(=O)N[C@@H](CC(N)=O)C(=O)N[C@H]4C(=O)NC3C(=O)NC2C(=O)N[C@@H](C(=O)O)c2cc(O)cc(O)c2-c2cc3ccc2O)O[C@@H](C)[C@@H]1O (some centres not stated) | –
7 | 12.5 (≈ 7.47 µM) | 6.25 (≈ 3.73 µM) | 0.2 (≈ 0.119 µM) | CN[C@H](CC(C)C)C(=O)N[C@H]1C(=O)N[C@@H](CC(N)=O)C(=O)N[C@H]2C(=O)NC3C(=O)NC(C(=O)N[C@@H](C(=O)O)c4cc(O)cc(O)c4-c4cc3ccc4O)[C@H](O[C@H]3C[C@](C)(NCc4ccc(C#Cc5ccc(Cl)cc5)cc4)[C@@H](O)[C@H](C)O3)c3ccc(c(Cl)c3)Oc3cc2cc(c3O[C@@H]2O[C@H](CO)[C@@H](O)[C@H](O)[C@H]2O)Oc2ccc(cc2Cl)[C@H]1O (some centres not stated) | –
8 | 6.25 (≈ 3.73 µM) | 6.25 (≈ 3.73 µM) | 0.2 (≈ 0.119 µM) | CN[C@H](CC(C)C)C(=O)N[C@H]1C(=O)N[C@@H](CC(N)=O)C(=O)N[C@H]2C(=O)NC3C(=O)NC(C(=O)N[C@@H](C(=O)O)c4cc(O)cc(O)c4-c4cc3ccc4O)[C@H](O[C@H]3C[C@](C)(NCc4ccc(/C=C/c5ccc(Cl)cc5)cc4)[C@@H](O)[C@H](C)O3)c3ccc(c(Cl)c3)Oc3cc2cc(c3O[C@@H]2O[C@H](CO)[C@@H](O)[C@H](O)[C@H]2O)Oc2ccc(cc2Cl)[C@H]1O (some centres not stated) | < 1

— ChEMBL document CHEMBL1134923, “Novel semi-synthetic glycopeptide antibiotics active against methicillin-resistant staphylococcus aureus (MRSA) and vancomycin-resistant Enterococci (VRE): doubly-modified water-soluble derivatives of chloroorienticin B” (Bioorg Med Chem Lett, 2002)
